Measurements reported in paper PMC7594877, “Multidirectional in vitro and in cellulo studies as a tool for identification of multi-target-directed ligands aiming at symptoms and causes of Alzheimer’s disease” (Journal of Enzyme Inhibition and Medicinal Chemistry, 2020).
“And” between values parts separate entries of the source, which are not always exact repeats. Equal entries are not always repeated. Where two headings read alike, the source gives them in different places. Marks after values point to notes of the source that are not given here.

What was measured:
tau [1] = molecular target: T1, tau (Homo sapiens, UniProt P10636); experiment: In cellulo tau aggregation inhibition, Thioflavin S fluorescence in E. coli overexpressing tau; format: cell-based, Escherichia coli; conditions: at 10 µM; mean of three experiments ± SEM
T1 construct: expressed in transfected cells; host or cells: E. coli BL21 (DE3) with pTARA (T7 RNA polymerase under pBAD) and pRKT42
T1 sequence (P10636 other isoform, or with tags, fused parts or gaps): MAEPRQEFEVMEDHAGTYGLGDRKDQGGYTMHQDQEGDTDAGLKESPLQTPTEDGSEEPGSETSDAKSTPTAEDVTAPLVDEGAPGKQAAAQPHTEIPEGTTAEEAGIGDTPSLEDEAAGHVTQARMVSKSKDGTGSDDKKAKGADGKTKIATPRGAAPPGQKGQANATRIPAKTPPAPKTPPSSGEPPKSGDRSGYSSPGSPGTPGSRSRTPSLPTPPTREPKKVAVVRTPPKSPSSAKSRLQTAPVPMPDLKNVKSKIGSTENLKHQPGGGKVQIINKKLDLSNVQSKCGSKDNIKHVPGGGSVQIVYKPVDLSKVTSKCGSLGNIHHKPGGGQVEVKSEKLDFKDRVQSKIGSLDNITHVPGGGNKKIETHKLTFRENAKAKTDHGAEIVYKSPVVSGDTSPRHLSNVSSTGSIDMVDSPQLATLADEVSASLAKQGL
From the text: (§1) We screened multifunctional ligands from our in-house library for their anti-aggregating activity against Aβ and tau in the whole bacterial cells using the Thioflavin S (ThS) fluorescence assay. Bacterial cells overexpressing different proteins provide simple models that can be easily employed to monitor the mechanisms of protein aggregation related to a variety of conformational diseases[36]^,[37]. In our assay, E. coli system has been implemented to study the effect of potential Aβ42 and tau aggregation inhibitors within intact cells. The advantage of the test over in vitro tests is the fact that it considers the complexity of the cellular environment that plays a crucial role in tuning protein aggregation. This assay has been validated and successfully applied to assess the anti-aggregating properties of diverse chemical structures. Previously investigated tetrahydrobenzo[h][1,6] naphthyridine-6-chlorotacrine hybrid DP-128 was used as a reference compound[38]^,[39].
(§2) The assays were conducted according to the procedure described previously. All general chemicals were purchased from Sigma-Aldrich (St. Louis, MO) . Reagents for bacterial media were purchased from Conda (Sevilla, Spain). M9 minimal medium for 100 mL: 10 mL of salts 10× (0.68 g of Na2HPO4, 0.30 g of KH2PO4, 0.05 g of NaCl, 0.10 g of NH4Cl), 0.2 mL of 1 M MgSO4, 0.2 mL of 50 mM CaCl2, 2.5 mL of 20% glucose, and 87.1 mL of H2O.
(§3) E. coli competent cells BL21 (DE3) were transformed with the pET28a vector (Novagen, Inc., Madison, WI) carrying the DNA sequence of Aβ42 or with pTARA containing the RNA polymerase gene of T7 phage (T7RP) under the control of the promoter pBAD, then with pRKT42 vector encoding four repeats of tau protein in two inserts. For overnight culture preparation, 10 ml of M9 minimal medium containing 50 μg/mL of kanamycin (Aβ42) or 50 μg/mL of ampicillin and 12.5 μg/mL of chloramphenicol (tau) were inoculated with a colony of BL21 (DE3) bearing the plasmid Aβ42 or tau plasmids to be expressed at 37 °C and 180 rpm using an incubator shaker (Ovan, Barcelona, Spain). After overnight growth, the OD600 was usually 2 − 2.5. For expression of Aβ42 peptide/tau protein, 200 μL of overnight culture were transferred into Eppendorf tubes of 1.5 mL containing 790 μL of fresh M9 minimal medium with 50 μg/mL of kanamycin1 mM of isopropyl 1-thio-β-D-galactopyranoside (IPTG) (Aβ42) or 50 μg/mL of ampicillin, 12.5 μg/mL of chloramphenicol, 0.25% of arabinose (tau), and 25 μM of ThS and 10 μL of reference, tested compounds (1 mM in DMSO, final concentration: 10 μM) or DMSO. The samples were grown for 24 h at 37 °C and 180 rpm using an incubator shaker (Ovan). The samples with DMSO were prepared as a negative control (maximum level of Aβ42/tau, 0% of inhibition). In the positive controls, the M9 medium without IPTG (minimal level of Aβ42) or arabinose (minimal level of tau) was used. For absorbance and fluorescence determination, 200 μL of each Eppendorf tube was transferred in triplicate into 96-well plate. Finally, the fluorescence emission at 520 nm, when exciting at 440 nm and absorbance at 600 nm was recorded using the multi-mode microplate reader (Beckman Counter, Brea, CA). The absorbance at 600 nm (OD600) of these samples was assessed to check the bacterial growth and potential intrinsic toxicity of the tested compounds. Final data are the average of three independent experiments. DP-128 was used as a reference compound[38].

Aβ42 [2] = molecular target: T2, Aβ42 (Homo sapiens, UniProt P05067); experiment: In cellulo Aβ42 aggregation inhibition, Thioflavin S fluorescence in E. coli overexpressing Aβ42; format: cell-based, Escherichia coli; conditions: at 10 µM; mean of three experiments ± SEM
T2 construct: expressed in transfected cells; host or cells: E. coli BL21 (DE3) with pET28a-Aβ42, IPTG-induced
T2 sequence (P05067 672-713): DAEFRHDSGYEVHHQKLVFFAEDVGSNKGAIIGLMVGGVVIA
From the text: as §1, §2, §3

human BACE1 = molecular target: T3, human BACE1 (Homo sapiens, UniProt P56817); experiment: In vitro inhibition of human BACE1, FRET assay; format: biochemical; conditions: for IC50: mean of three experiments ± SEM, read-out: hBACE1 IC50
T3 construct: purchased Panvera, Madison, WI (BACE1 FRET Assay Kit); host or cells: baculovirus-expressed
T3 sequence (P56817 46-501): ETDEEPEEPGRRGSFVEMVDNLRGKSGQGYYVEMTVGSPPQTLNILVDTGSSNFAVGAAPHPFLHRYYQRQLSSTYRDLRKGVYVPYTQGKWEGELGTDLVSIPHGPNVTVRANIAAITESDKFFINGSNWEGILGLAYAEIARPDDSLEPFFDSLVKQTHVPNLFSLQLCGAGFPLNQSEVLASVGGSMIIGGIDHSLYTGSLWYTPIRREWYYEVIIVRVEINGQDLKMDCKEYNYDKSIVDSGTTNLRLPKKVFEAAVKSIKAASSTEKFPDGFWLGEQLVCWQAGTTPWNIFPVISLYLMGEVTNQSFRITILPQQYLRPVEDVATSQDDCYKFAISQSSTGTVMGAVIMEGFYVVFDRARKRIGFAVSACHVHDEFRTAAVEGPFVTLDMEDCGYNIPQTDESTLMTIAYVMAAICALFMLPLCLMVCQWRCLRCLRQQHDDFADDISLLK
Method: To further explore the multifunctional profile of the ligands, we screened them for their inhibitory activity against human BACE1 using spectrofluorometric assay (fluorescence resonance energy transfer (FRET)-based). […] Therefore, BACE1 inhibitors are now being tested in earlier stages of AD and in asymptomatic subjects at risk of AD, with the hope of blocking the disease process before it becomes irreversible.
BACE1 FRET Assay Kit (Panvera, Madison, WI) was performed according to the manufacturer’s protocol with small modifications. The Kit includes purified baculovirus-expressed BACE1 and specific peptide substrate (Rh-[…]-quencher), based on the “Swedish” mutant of APP. The analysis was carried, using 384-well black microplates and a microplate reader (EnSpire Multimode; PerkinElmer, Waltham, MA). The wavelength was optimised for the 553 nm excitation and 576 nm emission. Stock solutions of all test compounds were prepared in DMSO and further diluted with assay buffer (50 mM sodium acetate; pH 4.5). In the first step, 10 μL of BACE1 substrate was mixed with 10 μL of test compound (or assay buffer; i.e. blank sample), then 10 μL of the enzyme (1 U/mL) was added to start the reaction. After 60 min of incubation at 25 °C, 10 μL of stop solution (2.5 M sodium acetate) was applied to stop the reaction. The fluorescence signal was read at 576 nm. Percent of inhibition was calculated from [1 − (S60 − S0)/(C60 − C0)] × 100, where S0 and S60 are fluorescence intensities of the test sample (enzyme, substrate, test compound) at the beginning of the reaction and after 60 min, respectively, while C0 and C60 are analogical fluorescence intensities of the blank sample (enzyme, substrate, buffer). […] Each compound was analysed in triplicate. Commercially available BACE1 Inhibitor IV (Calbiochem, Merck; Nottingham, UK) was used as the reference compound. The IC50 values were calculated using nonlinear regression (GraphPad Prism 5 [GraphPad Software, San Diego, CA, 5.00]) by plotting the residual enzyme activities against the applied inhibitor concentration.

hAChE = conditions: read-out: hAChE IC50; cited from earlier work
eqBuChE = conditions: read-out: eqBuChE IC50; cited from earlier work
tau [3] = molecular target: T1, tau; design: method as in di Pietro et al. 38; conditions: at 10 µM; ref di Pietro et al. 38; cited from earlier work
Aβ42 [4] = molecular target: T2, Aβ42; design: method as in di Pietro et al. 38; conditions: at 10 µM; ref di Pietro et al. 38; cited from earlier work
HepG2 cells = experiment: Cytotoxicity, MTS cell viability assay, HepG2; format: cell-based, human; conditions: 24 h, read-out: LC50 (cell viability, MTS)
Method: (§4) The human liver carcinoma HepG2 cell line was purchased from American Type Culture Collection (LGC Standards, UK). The human neuroblastoma SH-SY5Y cell line was purchased from American Type Culture Collection (CRL-2266, Manassas, VA). The cells were grown in Advanced Dulbecco’s modified Eagle’s medium (Sigma, St. Louis, MO) supplemented with 10% foetal bovine serum (FBS) (HyClone, Logan, UT), 2 mM L-glutamine, 50 U/mL penicillin and 50 μg/mL streptomycin (Sigma, St. Louis, MO) in a humidified atmosphere of 95% air and 5% CO2 at 37 °C, and grown to 80% confluence. Compound 3 was prepared as a stock solution of 20 mM in DMSO and was used at concentrations of 1–100 µM in case of HepG2 treatment, and at concentrations of 0.25–5 µM in case of SH-SY5Y treatment.
(§5) HepG2 and SH-SY5Y cells were seeded in 96-well plates (2 × 10^4/well) and assessed by MTS ([3–(4,5-dimethylthiazol-2-yl)-5–(3-carboxymethoxyphenyl)-2–(4-sulfophenyl)-2H-tetrazolium, inner salt) assay for their response to compound 3. Cells were treated as described above, and cell viability was assessed after 24 h using the CellTiter 96® Aqueous One Solution Cell Proliferation Assay (Promega, Madison, WI), following the manufacturer’s instructions. Absorbance was measured with an automatic microplate reader (Tecan Safire, Switzerland) at a wavelength of 492 nm.

SH-SY5Y cells = experiment: Cytotoxicity, MTS cell viability assay, SH-SY5Y; format: cell-based, human; conditions: 24 h, read-out: LC50 (cell viability, MTS)
Method: as §4, §5

h5-HT6 = molecular target: h5-HT6; design: method as in PMID 27560283, PMID 29384656; conditions: read-out: 5-HT6 Ki; cited from earlier work

Row | Structure (SMILES) | In cellulo tau inhibition % (tau [1]) | In cellulo Aβ42 inhibition % (Aβ42 [2]) | IC50 (human BACE1) | also measured
1 | c1ccc(Cn2ccc3c(N4CCN(CCNc5c6c(nc7ccccc57)CCCC6)CC4)cccc32)cc1 [Compound 17] | 59% and 58.6 ± 4.5% | 56% and 55.7 ± 2.8% | 4 µM and 4.09 µM | IC50 (hAChE): 0.026 µM; IC50 (eqBuChE): 0.005 µM
2 | O=S(=O)(c1ccccc1)n1ccc2c(N3CCN(CCCNCc4ccccc4)CC3)cccc21 [Compound 7] | 39.7 ± 3.8% | 48.3 ± 4.2% | 5.82 ± 0.34 µM | 
3 | Cc1c(OCc2ccccc2)cccc1N1CCN(CCCCNCc2ccccc2)CC1 [Compound 32] | 42.5 ± 6.3% | 43.2 ± 5.4% |  | hBACE1 % inhibition (human BACE1; at 10 µM per table footnote b, mean of three experiments ± SD): 42.8% ± 12.7; BACE1 percentage of inhibition (human BACE1; screening concentration 50 µM): 42.8%
4 | O=S(=O)(c1ccccc1)n1ccc2c(N3CCN(CCCCCCCCNc4c5c(nc6ccccc46)CCCC5)CC3)cccc21 [Compound 5] | 52.7 ± 5.7% | 61.8 ± 4.1% | 2.29 ± 0.13 µM | 
5 | Cc1c(OCc2ccccc2)cccc1N1CCN(CCCNc2c3c(nc4ccccc24)CCCC3)CC1 [Compound 27] | 64.5 ± 4.1% | 64.9 ± 4.5% | 5.76 ± 0.28 µM | 
6 | O=C(NCCCCCCCCNc1c2c(nc3cc(Cl)ccc13)CCCC2)c1ccc2nc(-c3ccc(Cl)cc3)c3c(c2c1)NCCC3 [DP-128] |  |  |  | In cellulo tau inhibition % (tau [3]): 68.7 ± 0.5^d %; In cellulo Aβ42 inhibition % (Aβ42 [4]): 77.5 ± 0.9^d %
7 | O=S(=O)(c1ccccc1)n1ccc2c(N3CCN(CCCCCCNc4c5c(nc6ccccc46)CCCC5)CC3)cccc21 [Compound 3] | 38% and 37.6 ± 2.4% | 30% and 29.7 ± 4.0% | 7.3 µM and 7.31 µM | CC50 (HepG2 cells): 6.4 µM; CC50 (SH-SY5Y cells): 1 µM; Ki (h5-HT6): 0.002 µM; IC50 (hAChE): 0.013 µM; IC50 (eqBuChE): 0.008 µM
